Experimental findings from patent US8106055B2, “Substituted amide compounds” (Gruenenthal GmbH, priority 2007, dated 2012) are described below.

Read-outs that look alike come from different tables or passages of the source.

In assay [1] the target is T1, human bradykinin 1 receptor (B1R) (Homo sapiens, UniProt P46663).
T1 construct: expressed in transfected cells; host or cells: CHO K1 cells
T1 sequence (P46663 1-353): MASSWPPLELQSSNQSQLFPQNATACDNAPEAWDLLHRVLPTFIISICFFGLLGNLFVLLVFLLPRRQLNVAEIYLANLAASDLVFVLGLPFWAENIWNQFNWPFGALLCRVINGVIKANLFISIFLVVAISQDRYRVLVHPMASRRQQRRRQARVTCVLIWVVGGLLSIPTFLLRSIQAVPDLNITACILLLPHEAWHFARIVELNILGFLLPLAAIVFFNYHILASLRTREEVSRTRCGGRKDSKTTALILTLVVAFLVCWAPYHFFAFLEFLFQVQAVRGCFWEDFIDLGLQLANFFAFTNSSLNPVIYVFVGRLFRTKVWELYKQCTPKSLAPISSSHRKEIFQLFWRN
Put plainly: Functional investigation on the human bradykinin 1 receptor (B1R), Ca2+ FLIPR assay in CHO K1 hB1R cells. The assay is classed as cell-based. Summed up:
(§1)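 Fluo-4 Ca2+ readout, peak fluorescence. Stable CHO K1 transfectants; compound pre-incubated 10-20 min, then EC80 agonist—Lys-Des-Arg9-BK for hB1R, Des-Arg9-BK for rB1R. % inhibition vs maximal inhibition; IC50 from multiple concentrations, duplicate/triplicate, ≥2 independent runs.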

Assay [2] deals with T2, bradykinin 1 receptor (B1R) of the rat (Rattus norvegicus, UniProt P97583).
T2 construct: expressed in transfected cells; host or cells: CHO K1 cells
T2 sequence (P97583 1-337): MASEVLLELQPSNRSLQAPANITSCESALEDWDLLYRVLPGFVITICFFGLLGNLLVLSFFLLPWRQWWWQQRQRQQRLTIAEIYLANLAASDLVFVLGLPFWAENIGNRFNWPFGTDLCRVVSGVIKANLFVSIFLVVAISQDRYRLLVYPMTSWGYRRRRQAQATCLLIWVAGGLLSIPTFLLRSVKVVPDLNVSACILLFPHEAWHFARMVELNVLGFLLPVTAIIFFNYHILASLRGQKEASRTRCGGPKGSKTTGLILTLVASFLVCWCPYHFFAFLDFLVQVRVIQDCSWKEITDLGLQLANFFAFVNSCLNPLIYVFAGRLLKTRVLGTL
Put plainly: Functional investigation on the rat bradykinin 1 receptor (B1R), Ca2+ FLIPR assay in CHO K1 rB1R cells. The assay is classed as cell-based. Put shortly: as §1

Where [3] appears, read: CHO-K1, B1R antagonism human, test substance 10 μM, Ca2+ FLIPR, CHO K1 hB1R cells, read-out: B1R Ant. h [10 μM] % Inhibition.
The mark [4] stands for this setting: CHO-K1, B1R antagonism rat, test substance 10 μM, Ca2+ FLIPR, CHO K1 rB1R cells, read-out: B1R Ant. r [10 μM] % Inhibition.

One may read the inhibition as the change of the read-out against control, counted positive when it falls. Take `COc1ccc(S(=O)(=O)N2CCC(OCC(=O)NCC3CCC(C(c4cccs4)N(C)C)CC3)C2)cc1OC` (stereo not shown) [Example 23, 2-(1-(3,4-dimethoxyphenylsulfonyl)pyrrolidin-3-yloxy)-N-((4-((dimethylamino)(thiophen-2-yl)methyl)cyclohexyl)methyl)acetamide]: the inhibition at 10 µM in assay [1] (setting [3]) was -25%; in assay [2] (setting [4]), 7%.
As for `CN(C)C(c1cccc(F)c1)C1CCC(CCNC(=O)COCCN(C)S(=O)(=O)c2cccc(C(F)(F)F)c2)CC1` (stereo not shown) [Example 192, N-(2-(4-((dimethylamino)(3-fluorophenyl)methyl)cyclohexyl)ethyl)-2-(2-(N-methyl-3-(trifluoromethyl)phenylsulfonamido)ethoxy)acetamide], the inhibition at 10 µM in assay [1] (setting [3]) was 30%; in assay [2] (setting [4]) it was 10%.
`CCN(CCOCC(=O)NCC1CCC(C(c2cccs2)N(C)C)CC1)S(=O)(=O)c1c(C)cc(OC)c(C)c1C` (stereo not shown) [Example 16, N-((4-((dimethylamino)(thiophen-2-yl)methyl)cyclohexyl)methyl)-2-(2-(N-ethyl-4-methoxy-2,3,6-trimethylphenylsulfonamido)ethoxy)acetamide]: the inhibition at 10 µM is 86% in assay [1] (setting [3]) and 59% in assay [2] (setting [4]).
For `CN(C)C(c1cccc(F)c1)C1CCC(CCNC(=O)COCC2CCCCN2S(=O)(=O)c2ccc(Cl)c(Cl)c2)CC1` (stereo not shown) [Example 147, 2-((1-(3,4-dichlorophenylsulfonyl)piperidin-2-yl)methoxy)-N-(2-(4-((dimethylamino)(3-fluorophenyl)methyl)cyclohexyl)ethyl)acetamide], in that order: 52% and 27%.
For `CN(C)C(c1cccc(F)c1)C1CCC(NC(=O)COC2CCN(S(=O)(=O)c3ccc(F)cc3)C2)CC1` (stereo not shown) [Example 172, N-(4-((dimethylamino)(3-fluorophenyl)methyl)cyclohexyl)-2-(1-(4-fluorophenylsulfonyl)pyrrolidin-3-yloxy)acetamide], in that order: -12% and 18%.
For `CN(C)C(c1cccs1)C1CCC(NC(=O)COCCN(C)S(=O)(=O)c2ccc(F)cc2)CC1` (stereo not shown) [Example 10, N-(4-((dimethylamino)(thiophen-2-yl)methyl)cyclohexyl)-2-(2-(4-fluoro-N-methylphenylsulfonamido)ethoxy)acetamide], in that order: -17% and 9%.
On to `COc1ccc(S(=O)(=O)N(C)CCOCC(=O)NCC2CCC(C(c3cccs3)N(C)C)CC2)cc1` (stereo not shown) [Example 142, N-((4-((dimethylamino)(thiophen-2-yl)methyl)cyclohexyl)methyl)-2-(2-(4-methoxy-N-methylphenylsulfonamido)ethoxy)acetamide], for which the inhibition at 10 µM in assay [1] (setting [3]) amounted to 50%; in assay [2] (setting [4]), 41%.
The matching figures for `CN(C)C(c1cccc(F)c1)C1CCC(NC(=O)COCCN(Cc2ccccc2)S(=O)(=O)c2ccccc2)CC1` (stereo not shown) [Example 175, 2-(2-(N-benzylphenylsulfonamido)ethoxy)-N-(4-((dimethylamino)(3-fluorophenyl)methyl)cyclohexyl)acetamide]: -6% and 5%.
For `CN(C)C(c1cccc(F)c1)C1CCC(CCNC(=O)COCCN(C)S(=O)(=O)c2ccc(Cl)cc2)CC1` (stereo not shown) [Example 186, 2-(2-(4-chloro-N-methylphenylsulfonamido)ethoxy)-N-(2-(4-((dimethylamino)(3-fluorophenyl)methyl)cyclohexyl)ethyl)acetamide], in that order: 23% and 35%.
For the molecule `COc1cc(C)c(S(=O)(=O)N(C)CCOCC(=O)NCCC2CCC(C(c3cccc(F)c3)N(C)C)CC2)c(C)c1C` (stereo not shown) [Example 183, N-(2-(4-((dimethylamino)(3-fluorophenyl)methyl)cyclohexyl)ethyl)-2-(2-(4-methoxy-N,2,3,6-tetramethylphenylsulfonamido)ethoxy)acetamide], the inhibition at 10 µM in assay [1] (setting [3]) was 104%; in assay [2] (setting [4]), 28%.
The matching figures for `COc1ccc(S(=O)(=O)N2CCCCC2COCC(=O)NCC2CCC(C(c3ccccc3)N(C)C)CC2)cc1OC` (stereo not shown) [Example 150, 2-((1-(3,4-Dimethoxyphenylsulfonyl)piperidin-2-yl)methoxy)-N-((4-((dimethylamino)(phenyl)methyl)cyclohexyl)methyl)acetamide]: 4% and 10%.
As for `COc1cc(C)c(S(=O)(=O)N2CCC(OCC(=O)NCC3CCC(C(c4ccccc4)N(C)C)CC3)C2)c(C)c1` (stereo not shown) [Example 173, N-((4-((dimethylamino)(phenyl)methyl)cyclohexyl)methyl)-2-(1-(4-methoxy-2,6-dimethylphenylsulfonyl)pyrrolidin-3-yloxy)acetamide], the inhibition at 10 µM in assay [1] (setting [3]) stood at 94%; in assay [2] (setting [4]), 104%.
For `CN(C)C(c1cccs1)C1CCC(CCNC(=O)COCCN(C)S(=O)(=O)c2ccc(Cl)cc2Cl)CC1` (stereo not shown) [Example 9, 2-(2-(2,4-dichloro-N-methylphenylsulfonamido)ethoxy)-N-(2-(4-((dimethylamino) (thiophen-2-yl)methyl)cyclohexyl)ethyl)acetamide], in that order: 97% and 43%.
In the case of `COc1cc(C)c(S(=O)(=O)N2CCC(OCC(=O)NCCC3CCC(C(c4cccs4)N(C)C)CC3)C2)c(C)c1` (stereo not shown) [Example 199, N-(2-(4-((dimethylamino)(thiophen-2-yl)methyl)cyclohexyl)ethyl)-2-(1-(4-methoxy-2,6-dimethylphenylsulfonyl)pyrrolidin-3-yloxy)acetamide], the figures for the inhibition at 10 µM in assay [1] (setting [3]) and in assay [2] (setting [4]) were 104% and 100%, respectively.
For `CN(C)C(c1cccs1)C1CCC(CCNC(=O)COC2CCN(S(=O)(=O)c3ccc(Cl)cc3Cl)C2)CC1` (stereo not shown) [Example 21, 2-(1-(2,4-dichlorophenylsulfonyl)pyrrolidin-3-yloxy)-N-(2-(4-((dimethylamino)(thiophen-2-yl)methyl)cyclohexyl)ethyl)acetamide], in that order: 88% and 50%.
Regarding `CN(C)C(c1cccs1)C1CCC(NC(=O)COC2CCN(S(=O)(=O)c3cccc(C(F)(F)F)c3)C2)CC1` (stereo not shown) [Example 11, N-(4-((dimethylamino)(thiophen-2-yl)methyl)cyclohexyl)-2-(1-(3-(trifluoromethyl)phenylsulfonyl)pyrrolidin-3-yloxy)acetamide], the values for the inhibition at 10 µM in assay [1] (setting [3]) and in assay [2] (setting [4]) were -16% and 36%, respectively.
As for `CN(C)C(c1ccccc1)C1CCC(CNC(=O)COC2CCN(S(=O)(=O)c3ccccc3)C2)CC1` (stereo not shown) [Example 195, N-((4-((dimethylamino)(phenyl)methyl)cyclohexyl)methyl)-2-(1-(phenylsulfonyl)pyrrolidin-3-yloxy)acetamide], the inhibition at 10 µM in assay [1] (CHO-K1, read-out: B1R Ant. h [10 μM] % Inhibition) was -13%; in assay [2] (CHO-K1, read-out: B1R Ant. r [10 μM] % Inhibition), 24%.
